Source: patent US20230067811A1, “MODULATING LYMPHATIC VESSELS IN NEUROLOGICAL DISEASE” (University of Virginia Patent Foundation, priority 2020, published 2023)

Tested on: WT mice
Test: Meningeal lymphatic vessel ablation (Visudyne plus photoconversion): lymphatic morphology
Format: in vivo, mouse
Conditions: 1 week after Visudyne i.c.m. plus transcranial photoconversion
Experimental: Adult 2 months-old WT mice were injected (i.c.m.) with Visudyne (5 μL) followed by a transcranial photoconversion step (Vis./photo.) to ablate meningeal lymphatic vessels. Control mice were injected with Visudyne without photoconversion (Vis.). One week later, mice were injected with 5 μL of a suspension of fluorescent microspheres (1 μm in diameter) into the CSF and 15 minutes later the lymphatic vessel afferent to the deep cervical lymph node (dCLN) was imaged by in vivo stereomicroscopy. Representative images of skull cap show microspheres and lymphatic vessels stained for LYVE-1 around the confluence of sinuses (COS) and transverse sinus (TS) at the dorsal brain meninges or around the sigmoid (SS) and petrosquamosal (PSS) sinuses at the basal brain meninges (scale bars, 500 μm). […]
Immunohistochemistry, imaging and quantifications. […]

## verteporfin [Visudyne]
  lymphatic vasculature lining the transverse sinus (dorsal meninges): efficient ablation
  lymphatic vessels around the SS and PSS (basal meninges): no significant changes
